Laboratory results taken from ChEMBL document CHEMBL2176941, “Kinetic profile of amyloid formation in the presence of an aromatic inhibitor by nuclear magnetic resonance” (ACS Med Chem Lett, 2012).
Calls of active or inactive are those of the source. The calls are words filed in the database; no cut-off is given here.

How the values were obtained:
[1] = target: T1, Islet amyloid polypeptide (Homo sapiens) (UniProt P10997); assay: Inhibition of IAPP assembly at 1:1 protein to compound ratio after 29 days by NMR analysis
T1 sequence (whole entry): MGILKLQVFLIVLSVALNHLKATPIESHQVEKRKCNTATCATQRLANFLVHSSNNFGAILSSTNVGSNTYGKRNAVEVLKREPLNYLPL

[2] = target: T1, Islet amyloid polypeptide (Homo sapiens); assay: Inhibition of IAPP assembly at 1:1 protein to compound ratio after 18 to 31 days by NMR analysis
[3] = target: T1, Islet amyloid polypeptide (Homo sapiens); assay: Inhibition of IAPP assembly assessed as nucleation period at 1:1 protein to compound ratio (reference value: 15.3 days)
[4] = Inhibition of IAPP (11 to 25) S20G mutant assembly at 1:1 protein to compound ratio after 1 to 8 days by TOCSY spectra analysis
[5] = target: T1, Islet amyloid polypeptide (Homo sapiens); assay: Inhibition of IAPP fibrillation at 1:1 protein to compound ratio after 44 days by transmission electron microscopy
[6] = target: T1, Islet amyloid polypeptide (Homo sapiens); assay: Activity of IAPP assessed as maximal rate of self-assembly at 1:1 protein to compound ratio by NMR analysis (reference value: 12.2/day)
[7] = target: T1, Islet amyloid polypeptide (Homo sapiens); assay: Inhibition of IAPP assembly at 1:1 protein to compound ratio after 1 to 5 days by circular dichroism spectra analysis
[8] = target: T1, Islet amyloid polypeptide (Homo sapiens); assay: Inhibition of IAPP assembly assessed as prenucleation period at 1:1 protein to compound ratio by NMR analysis

COc1cc(/C=C/C(=O)CC(=O)/C=C/c2ccc(O)c(OC)c2)ccc1O
inhibition [1]: inactive
inhibition [2]: Active
TIME [3]: 290 h
inhibition [4]: Active
inhibition [5]: inactive
Activity [6]: 15.1 day⁻¹
inhibition [7]: Active
TIME [8]: 408 h
